The values that follow come from patent US12180235B1, “Fabrication of novel nano-sized [4{3,4-bis-[(5-bromo-2-hydroxy-benzylidene)-amino]-phenyl }-phenyl-methanone] Ru(III) complex for pharmaceutical applications” (KING FAISAL UNIVERSITY, priority 2024, dated 2024).

What is called MIC is the least concentration at which growth counts as inhibited. By IC50 is commonly meant the midpoint of a concentration-inhibition curve. Low values mean greater potency in that assay, high ones weaker potency in that assay.

Common to all, as to format: cell-based
Assay [1] deals with Aspergillus Flavus. The assay can be described thus: Antifungal screening, well diffusion method. The note with it: 35° C. for 7 days. As to the method:
Antifungal activities of the prepared nano-complex were studied against three fungal cultures using well diffusion method. The tested fungi were inoculated in Sabouraud dextrose broth medium (Hi-Media Mumbai) and incubated at 35° C. for 72 h and subsequently a suspension of about 1.60×10^4-6.00×10^4 c.f.u/ml was introduced agar plates and a sterile glass spreader was used for even distribution of the inoculum. The discs measuring 6 mm in diameter were prepared from Whatman No. 1 filter paper and sterilized by dry heat at 140° C. for 1 h. The sterile discs previously soaked in known concentration of the tested compounds were placed in Sabouraud dextrose Agar (SDA) plates. The plates were inverted and incubated at 35° C. for 7 days. The susceptibility was assessed on the basis of diameter of inhibition against albicans and non-albicans strain of fungi.

For assay [2], the system named is Aspergillus Flavus. The assay can be described thus: Minimum inhibitory concentration, serial broth dilution (fungus). As to the method: (§1) Minimum inhibitory concentrations (MICs) are defined as the lowest concentration of an antimicrobial that will inhibit the visible growth of a microorganism after overnight incubation. MICs are used by diagnostic laboratories mainly to confirm resistance of microorganism to antimicrobial agents and also to monitor the activity of new antimicrobial agents. MIC was determined in vitro in liquid medium by serial broth dilution method.
A general note: Dilution methods test growth across graded concentrations, often in twofold steps.

Assay [3] concerns Pseudomonas aeruginosa. In words: Antibacterial screening, agar well diffusion method. The note with it: 24 hours at 37° C. As to the method:
The susceptibilities of such growth rate of microorganisms were measured in vitro by agar well diffusion method. The tested nano complex was dissolved in dimethylsulfoxide at different concentrations (10 and 20 mg/ml). 1 cm^3 of a 24 h broth culture containing 10^6 CFU/cm^3 was placed in sterile Petri-dishes. Molten nutrient agar (15 cm^3) maintained at 45° C. was then poured into the Petri-dishes and allowed to solidify. Then holes of 6 mm diameter were formed in the agar using a sterile cork borer and these holes were completely filled with the test solutions. The plates were incubated for 24 hours at 37° C. After the incubation period, the zone of inhibition of each well was determined by measuring the zones of growth inhibition (mm) against the test microorganisms with zone reader (Hi Antibiotic zone scale). […] The measurements were made in triplicate for each compound and their average values are reported.

The subject of assay [4] is Pseudomonas aeruginosa. The assay can be described thus: Minimum inhibitory concentration, serial broth dilution (bacteria). As to the method: as §1
Another assay relates to Colon cancer cells line. The assay can be described thus: Cytotoxic activity, Sulfo-Rhodamine-B-stain (SRB) assay. The note with it: colon cancer cell line, 48 hrs. As to the method:
The anticancer activity was made at the National Cancer Institute, Cancer Biology Department, Pharmacology Department, Cairo University. The absorbance or optical density (O.D.) of each well was measured spectrophotometrically at 564 (nm) with an “ELIZA” micro plate reader (Meter tech. Σ 960, “USA”). Evaluation of the cytotoxic activity of the prepared nano-complex was carried out against Colon cancer cells line. The evaluation process was carried out in vitro using the Sulfo-Rhodamine-B-stain (SRB). Cells were placed in 96-multiwell plate (10^4 cells/well) for 24 hrs before processing with the complexes to allow attachment of cell to the wall of the plate. Various concentrations of the compounds under test in DMSO (0, 1, 2.5, 5 and 10 µM) were added to the cell monolayer. Monolayer cells were incubated with the complexes for 48 hrs at 37° C. and in atmosphere of 5% CO2. After 48 hrs, cells were fixed, rinsed, and stained with Sulfo-Rhodamine-B-stain. Excess stain was washed with acetic acid and attached stain was treated with Tris EDTA buffer. Color intensity was measured in an ELISA reader. IC50 was evaluated and potency was calculated with regard to percentage of change of (vistabline standard). The relation between surviving fraction and compound concentration is plotted to get the survival curve of each tumor cell line after the specified compound. […]

Converted amounts (≈) assume the structure as drawn. Where two headings read alike, the source gives them in different places.

Take `OC(Cn1cncn1)(Cn1cncn1)c1ccc(F)cc1F` [Flucazanol]: the inhibition zone with Aspergillus Flavus [1] is reported as 27 mm. The compound further returned an MIC with Aspergillus Flavus [2] of 2.50 µg/mL (≈ 8.16 µM).
For the compound `CC1COc2c(N3CCN(C)CC3)c(F)cc3c(=O)c(C(=O)O)cn1c23` (stereo not drawn) [Ofloxacin], the inhibition zone in the assay on Pseudomonas aeruginosa [3] is listed as 38 mm. Besides, in the assay with Pseudomonas aeruginosa [4] (read-out: MIC), the MIC is 2.25 µg/mL (≈ 6.23 µM).
In the case of `CC[C@]1(O)C[C@@H]2CN(CCc3c([nH]c4ccccc34)[C@@](C(=O)OC)(c3cc4c(cc3OC)N(C)[C@H]3[C@@](O)(C(=O)OC)[C@H](OC(C)=O)[C@]5(CC)C=CCN6CC[C@]43[C@@H]65)C2)C1` [vinblastine], half-maximal inhibition in the assay on Colon cancer cells line (IC50) required 5.7 µM.
For the compound “[4{3,4-bis-[(5-bromo-2-hydroxy-benzylidene)-amino]-phenyl}-phenyl-methanone] Ru(III) complex [prepared nano complex]”, the inhibition zone was found to be 42 mm with Pseudomonas aeruginosa [3] and 30 mm in the assay on Aspergillus Flavus [1]. The minimal inhibitory concentration (MIC) in the assay on Pseudomonas aeruginosa [4] worked out at 1.5 µg/mL; in the assay with Aspergillus Flavus [2], 2.00 µg/mL.
